Experiments:
[1] = test system: bicistronic HCV replicon (replicon RNA, GenBank Accession No. AJ242654); test: HCV Replicon Assay; format: cell-based; conditions: Hepatitis C virus, 72 h, read-out: Replicon IC50

Compound	IC50 [1] [nM]	melting point
Cc1cc2c(cc1F)c(C#N)c(-c1ccc(S(=O)(=O)N[C@@H](C)C(F)(F)F)cn1)n2-c1occc1C#N [compound 1072, 6-[3-cyano-1-(3-cyanofuran-2-yl)-5-fluoro-6-methyl-1H-indol-2-yl]-N-[(2S)-1,1,1-trifluoropropan-2-yl]pyridine-3-sulfonamide]	500 to 2000	238 to 243.6 °C
Cc1cc2c(cc1F)c(C#N)c(-c1ccc(S(=O)(=O)N[C@@H](C)C(F)(F)F)cn1)n2-c1nc(C#N)co1 [compound 1074, 6-[3-cyano-1-(4-cyano-1,3-oxazol-2-yl)-5-fluoro-6-methyl-1H-indol-2-yl]-N-[(2S)-1,1,1-trifluoropropan-2-yl]pyridine-3-sulfonamide]	< 500	212.2 to 216.9 °C
C[C@@H](C1CC1)n1c(-c2ccc(NS(=O)(=O)C(C)(C)C)nc2)c(C(N)=O)c2cc(F)c(OC(F)F)cc21 [compound 1081, 2-{6-[(tert-butylsulfonyl)amino]pyridin-3-yl}-1-[(1S)-1-cyclopropylethyl]-6-(difluoromethoxy)-5-fluoro-1H-indole-3-carboxamide]	< 500	239 to 241 °C
CCc1cc2c(cc1F)c(C(N)=O)c(-c1ccc(NS(=O)(=O)C(C)(C)C)nc1)n2[C@@H](C)C1CC1 [compound 1083, 2-{6-[(tert-butylsulfonyl)amino]pyridin-3-yl}-1-[(1S)-1-cyclopropylethyl]-6-ethyl-5-fluoro-1H-indole-3-carboxamide]	< 500	256 to 259 °C
C[C@H](C1CC1)n1c(-c2ccc(NS(=O)(=O)C(C)(C)C)nc2)c(C(N)=O)c2cc(F)c(OC(F)F)cc21 [compound 1085, 2-{6-[(tert-butylsulfonyl)amino]pyridin-3-yl}-1-[(1R)-1-cyclopropylethyl]-6-(difluoromethoxy)-5-fluoro-1H-indole-3-carboxamide]	< 500	228 to 230 °C
Cc1cc(NS(=O)(=O)C(C)(C)C)ncc1-c1c(C(N)=O)c2cc(F)c(OC(F)F)cc2n1[C@H](C)C1CC1 [compound 1087, 2-{6-[(tert-butylsulfonyl)amino]-4-methylpyridin-3-yl}-1-[(1R)-1-cyclopropylethyl]-6-(difluoromethoxy)-5-fluoro-1H-indole-3-carboxamide]	< 500	250 to 254 °C
CC(C)(C)S(=O)(=O)Nc1ccc(-c2c(C(N)=O)c3c(F)cc(C4CC4)cc3n2C2CCCCC2)cn1 [compound 1088, 2-{6-[(tert-butylsulfonyl)amino]pyridin-3-yl}-1-cyclohexyl-6-cyclopropyl-4-fluoro-1H-indole-3-carboxamide]	< 500	290 to 294 °C
CC(C)(C)S(=O)(=O)Nc1ccc(-c2c(C#N)c3c(F)cc(C4CC4)cc3n2C2CCCCC2)nc1 [compound 1092, N-[6-(3-cyano-1-cyclohexyl-6-cyclopropyl-4-fluoro-1H-indol-2-yl)pyridin-3-yl]-2-methylpropane-2-sulfonamide]	< 500	252 to 255 °C
Cc1nc(NS(=O)(=O)C(C)(C)C)ccc1-c1c(C(N)=O)c2cc(F)c(OC(F)F)cc2n1C(C)C [compound 1095, 2-{6-[(tert-butylsulfonyl)amino]-2-methylpyridin-3-yl}-6-(difluoromethoxy)-5-fluoro-1-(propan-2-yl)-1H-indole-3-carboxamide]	500 to 2000	234 to 235 °C
Cc1nc(NS(=O)(=O)C(C)(C)C)ccc1-c1c(C(N)=O)c2cc(F)c(OC(F)F)cc2n1[C@@H](C)C1CC1 [compound 1096, 2-{6-[(tert-butylsulfonyl)amino]-2-methylpyridin-3-yl}-1-[(1S)-1-cyclopropylethyl]-6-(difluoromethoxy)-5-fluoro-1H-indole-3-carboxamide]	< 500	147 to 151 °C
CC(C)(C)S(=O)(=O)Nc1ccc(-c2c(C(N)=O)c3c(F)cc(C4CC4)cc3n2C2CCCCC2)nc1 [compound 1097, 2-{5-[(tert-butylsulfonyl)amino]pyridin-2-yl}-1-cyclohexyl-6-cyclopropyl-4-fluoro-1H-indole-3-carboxamide]	< 500	275 to 285 °C (dec.)
CC(C)(NS(=O)(=O)c1ccc(-c2c(C#N)c3c(F)cc(C4CC4)cc3n2-c2ncccn2)nc1)C(F)(F)F [compound 1098, 6-[3-cyano-6-cyclopropyl-4-fluoro-1-(pyrimidin-2-yl)-1H-indol-2-yl]-N-(1,1,1-trifluoro-2-methylpropan-2-yl)pyridine-3-sulfonamide]	500 to 2000	198 to 200 °C
CC(C)(C)S(=O)(=O)Nc1ccc(-c2c(C(N)=O)c3cc(F)c(C4CC4)cc3n2-c2ccccc2)cn1 [compound 1100, 2-{6-[(tert-butylsulfonyl)amino]pyridin-3-yl}-6-cyclopropyl-5-fluoro-1-phenyl-1H-indole-3-carboxamide]	< 500	272 to 274 °C
CC(C)(C)S(=O)(=O)Nc1ccc(-c2c(C#N)c3cc(F)c(C4CC4)cc3n2-c2ccccc2)cn1 [compound 1101, N-[5-(3-cyano-6-cyclopropyl-5-fluoro-1-phenyl-1H-indol-2-yl)pyridin-2-yl]-2-methylpropane-2-sulfonamide]	500 to 2000	249 to 250 °C
CC(C)(C)S(=O)(=O)Nc1ccc(-c2c(C(N)=O)c3cc(F)c(OCF)cc3n2C2CCCCC2)cn1 [compound 1102, 2-{6-[(tert-butylsulfonyl)amino]pyridin-3-yl}-1-cyclohexyl-5-fluoro-6-(fluoromethoxy)-1H-indole-3-carboxamide]	< 500	274 to 276 °C
CCc1cc2c(cc1F)c(C(=O)O)c(-c1ccc(NS(=O)(=O)C(C)(C)C)nc1)n2[C@H](C)C1CC1 [compound 1103, 2-{6-[(tert-butylsulfonyl)amino]pyridin-3-yl}-1-[(1R)-1-cyclopropylethyl]-6-ethyl-5-fluoro-1H-indole-3-carboxylic acid]	500 to 2000	165 °C (dec.)
CCc1cc2c(cc1F)c(C(N)=O)c(-c1ccc(NS(=O)(=O)C(C)(C)C)nc1)n2[C@H](C)C1CC1 [compound 1104, 2-{6-[(tert-butylsulfonyl)amino]pyridin-3-yl}-1-[(1R)-1-cyclopropylethyl]-6-ethyl-5-fluoro-1H-indole-3-carboxamide]	< 500	255.5 to 259 °C
CC(C)(C)S(=O)(=O)Nc1ccc(-c2c(C(N)=O)c3c(F)cc(C4CC4)cc3n2-c2ccc(F)cc2)cn1 [compound 1105, 2-{6-[(tert-butylsulfonyl)amino]pyridin-3-yl}-6-cyclopropyl-4-fluoro-1-(4-fluorophenyl)-1H-indole-3-carboxamide]	< 500	290 to 295 °C
CCc1cc(F)c2c(C(N)=O)c(-c3ccc(NS(=O)(=O)C(C)(C)C)nc3)n(-c3ccc(F)cc3)c2c1 [compound 1106, 2-{6-[(tert-butylsulfonyl)amino]pyridin-3-yl}-6-ethyl-4-fluoro-1-(4-fluorophenyl)-1H-indole-3-carboxamide]	< 500	280 to 288 °C
Cc1cc2c(cc1F)c(C#N)c(-c1ccc(S(=O)(=O)NC(C)(C)C)cn1)n2-c1ccccc1 [compound 1108, N-tert-butyl-6-(3-cyano-5-fluoro-6-methyl-1-phenyl-1H-indol-2-yl)pyridine-3-sulfonamide]	< 500	200.6 to 202.4 °C
CCc1cc2c(cc1F)c(C(N)=O)c(-c1ccc(S(=O)(=O)NC(C)(C)C)cn1)n2-c1ccccc1 [compound 1109, 2-[5-(tert-butylsulfamoyl)pyridin-2-yl]-6-ethyl-5-fluoro-1-phenyl-1H-indole-3-carboxamide]	< 500	237.9 to 238.9 °C
CCc1cc(F)c2c(C(N)=O)c(-c3ccc(NS(=O)(=O)C(C)(C)C)cn3)n(C3CCC3)c2c1 [compound 1110, 2-{5-[(tert-butylsulfonyl)amino]pyridin-2-yl}-1-cyclobutyl-6-ethyl-4-fluoro-1H-indole-3-carboxamide]	< 500	259 to 263 °C
CCc1cc(F)c2c(C(N)=O)c(-c3ccc(NS(=O)(=O)C(C)(C)C)nc3)n(-c3ccccc3)c2c1 [compound 1111, 2-{6-[(tert-butylsulfonyl)amino]pyridin-3-yl}-6-ethyl-4-fluoro-1-phenyl-1H-indole-3-carboxamide]	< 500	288 to 294 °C
[2H]C([2H])([2H])c1cc2c(cc1F)c(C#N)c(-c1ccc(S(=O)(=O)N[C@@]([2H])(C)C(F)(F)F)cn1)n2C1CCC1 [compound 1114, 6-[3-cyano-1-cyclobutyl-5-fluoro-6-(1,1,1-trideuterium)methyl-1H-indol-2-yl]-N-[(2S)-1,1,1-trifluoro(2-deuterium)propan-2-yl]pyridine-3-sulfonamide]	< 500	213 to 215 °C
Cc1cc2c(cc1F)c(C(N)=O)c(-c1ccc(S(=O)(=O)NC(C)(C)C)cn1)n2C1CCCCC1 [compound 1115, 2-[5-(tert-butylsulfamoyl)pyridin-2-yl]-1-cyclohexyl-5-fluoro-6-methyl-1H-indole-3-carboxamide]	< 500	274.5 to 275.6 °C
Cc1cc2c(cc1F)c(C(N)=O)c(-c1ccc(S(=O)(=O)NC(C)(C)C)cn1)n2-c1ccccc1 [compound 1116, 2-[5-(tert-butylsulfamoyl)pyridin-2-yl]-5-fluoro-6-methyl-1-phenyl-1H-indole-3-carboxamide]	< 500	241.2 to 242.5 °C
CC(C)(C)NS(=O)(=O)c1ccc(-c2c(C#N)c3cc(F)c(C4CC4)cc3n2-c2ccccc2)nc1 [compound 1117, N-tert-butyl-6-(3-cyano-6-cyclopropyl-5-fluoro-1-phenyl-1H-indol-2-yl)pyridine-3-sulfonamide]	< 500	219.2 to 220.8 °C
CCc1cc(F)c2c(C(N)=O)c(-c3ccc(NS(=O)(=O)C(C)(C)C)nc3)n(C3CCC3)c2c1 [compound 1118, 2-{6-[(tert-butylsulfonyl)amino]pyridin-3-yl}-1-cyclobutyl-6-ethyl-4-fluoro-1H-indole-3-carboxamide]	< 500	263 to 268 °C

Reference: US8735414B2 (priority 2009, dated 2014)
